Laboratory results from US10456358B2, “Isoxazoline compositions and use thereof in the prevention or treatment of parasite infestations in animals” (Intervet Inc., priority 2013, dated 2019).

What was measured:
[1] = Tolerability in hens in the efficacy study; format: in vivo; settings: 0.5-2 mg fluralaner/kg BW via medicated drinking water
Protocol: Groups A-D (n=6) were treated with doses of 2, 1 and 0.5 mg fluralaner/kg BW once or 1 mg fluralaner/kg BW twice (0.5 mg/kg BW on 2 occasions).
On D0 (group D additionally on D7), the hens in groups A-D received fluralaner via medicated drinking water. Group E received un-medicated drinking water ad libitum.

[2] = Technological study: fluralaner concentration at drinking nipples of a poultry house water system; format: physicochemical
Protocol: The study was conducted in a commercial poultry house for approximately 36000 replacement chickens with 4 batteries each with 3 levels. 4 PVC water dead-end pipes, (78 m long) supplied water for each battery.
Drinking nipples (Big Dutchman types “screw nipples” and “Top”, equipped with a single-arm plastic drip cup) were fitted to the water pipes. In this facility the delivery of the concentrated composition to the drinking nipples using both a dosing pump system and a medication tank was evaluated. • a) Dosing Pump • The dosing pump and its stock solution container were installed in a water hose coming from the water supply pipe and ending in a water tank that was metered for […]. • The dosing pump was set for 5% injection rate. The stock solution container was filled with a total of 8.8 L (175×0.05 [5%]). • Once the container was filled, the calculated volume of 193 mL of the concentrated composition was poured into the container and subsequently stirred. • The dosing pump was connected to the water distribution pipe and the pipe system filled with the medicated water. • b) Medication Tank • The medication tank was filled with 175 L of tap water. • The calculated volume of 193 mL of the concentrated composition was poured into the container and subsequently stirred. • The medication tank was connected to the water distribution pipe and the pipe system filled with the medicated water.
No animals were present in the cages. Therefore the water lines were opened every 10 min to mimic a continuous (intermittent) drinking water flow. At each draining 7.3 L of medicated water was allowed to drain at the dead-end side of the pipe.
Samples of medicated water was taken from 6 drinking nipples: the first and last drinking nipple in a drinker line, and from 4 drinking nipples having an equal distance at pre-defined time points, with a maximum of 4 h and analysed for fluralaner concentration.

Structure (SMILES): Cc1cc(C2=NOC(c3cc(Cl)cc(Cl)c3)(C(F)(F)F)C2)ccc1C(=O)NCC(=O)NCC(F)(F)F (centres unmarked) [fluralaner, 4-[5-(3,5-Dichlorophenyl)-5-trifluoromethyl-4,5-dihydroisoxazol-3-yl]-2-methyl-N-[(2,2,2-trifluoro-ethylcarbamoyl)-methyl]-benzamide]
- tolerability [1]: well tolerated
- Deviation of fluralaner concentration at the drinking nipple from nominal concentration (percent) ([2]; Dosing pump system, Nipple 1, T 30 min): −10%
- Deviation of fluralaner concentration at the drinking nipple from nominal concentration (percent) ([2]; Dosing pump system, Nipple 1, T 60 min): −10%
- Deviation of fluralaner concentration at the drinking nipple from nominal concentration (percent) ([2]; Dosing pump system, Nipple 1, T 120 min): −9%
- Deviation of fluralaner concentration at the drinking nipple from nominal concentration (percent) ([2]; Dosing pump system, Nipple 1, T 180 min): −9%
- Deviation of fluralaner concentration at the drinking nipple from nominal concentration (percent) ([2]; Dosing pump system, Nipple 1, T 240 min): −9%
- Deviation of fluralaner concentration at the drinking nipple from nominal concentration (percent) ([2]; Dosing pump system, Nipple 2, T 30 min): −9%
- Deviation of fluralaner concentration at the drinking nipple from nominal concentration (percent) ([2]; Dosing pump system, Nipple 2, T 60 min): −14%
- Deviation of fluralaner concentration at the drinking nipple from nominal concentration (percent) ([2]; Dosing pump system, Nipple 2, T 120 min): −12%
- Deviation of fluralaner concentration at the drinking nipple from nominal concentration (percent) ([2]; Dosing pump system, Nipple 2, T 180 min): −9%
- Deviation of fluralaner concentration at the drinking nipple from nominal concentration (percent) ([2]; Dosing pump system, Nipple 2, T 240 min): −9%
- Deviation of fluralaner concentration at the drinking nipple from nominal concentration (percent) ([2]; Dosing pump system, Nipple 3, T 30 min): −9%
- Deviation of fluralaner concentration at the drinking nipple from nominal concentration (percent) ([2]; Dosing pump system, Nipple 3, T 60 min): −10%
- Deviation of fluralaner concentration at the drinking nipple from nominal concentration (percent) ([2]; Dosing pump system, Nipple 3, T 120 min): −10%
- Deviation of fluralaner concentration at the drinking nipple from nominal concentration (percent) ([2]; Dosing pump system, Nipple 3, T 180 min): −14%
- Deviation of fluralaner concentration at the drinking nipple from nominal concentration (percent) ([2]; Dosing pump system, Nipple 3, T 240 min): −14%
- Deviation of fluralaner concentration at the drinking nipple from nominal concentration (percent) ([2]; Dosing pump system, Nipple 4, T 30 min): −12%
- Deviation of fluralaner concentration at the drinking nipple from nominal concentration (percent) ([2]; Dosing pump system, Nipple 4, T 60 min): −16%
- Deviation of fluralaner concentration at the drinking nipple from nominal concentration (percent) ([2]; Dosing pump system, Nipple 4, T 120 min): −14%
- Deviation of fluralaner concentration at the drinking nipple from nominal concentration (percent) ([2]; Dosing pump system, Nipple 4, T 180 min): −10%
- Deviation of fluralaner concentration at the drinking nipple from nominal concentration (percent) ([2]; Dosing pump system, Nipple 4, T 240 min): −10%
- Deviation of fluralaner concentration at the drinking nipple from nominal concentration (percent) ([2]; Dosing pump system, Nipple 5, T 30 min): −12%
- Deviation of fluralaner concentration at the drinking nipple from nominal concentration (percent) ([2]; Dosing pump system, Nipple 5, T 60 min): −10%
- Deviation of fluralaner concentration at the drinking nipple from nominal concentration (percent) ([2]; Dosing pump system, Nipple 5, T 120 min): −11%
- Deviation of fluralaner concentration at the drinking nipple from nominal concentration (percent) ([2]; Dosing pump system, Nipple 5, T 180 min): −10%
- Deviation of fluralaner concentration at the drinking nipple from nominal concentration (percent) ([2]; Dosing pump system, Nipple 5, T 240 min): −10%
- Deviation of fluralaner concentration at the drinking nipple from nominal concentration (percent) ([2]; Dosing pump system, Nipple 6, T 30 min): −26%
- Deviation of fluralaner concentration at the drinking nipple from nominal concentration (percent) ([2]; Dosing pump system, Nipple 6, T 60 min): −10%
- Deviation of fluralaner concentration at the drinking nipple from nominal concentration (percent) ([2]; Dosing pump system, Nipple 6, T 120 min): −11%
- Deviation of fluralaner concentration at the drinking nipple from nominal concentration (percent) ([2]; Dosing pump system, Nipple 6, T 180 min): −11%
- Deviation of fluralaner concentration at the drinking nipple from nominal concentration (percent) ([2]; Dosing pump system, Nipple 6, T 240 min): −10%
- Deviation of fluralaner concentration at the drinking nipple from nominal concentration (percent) ([2]; Medication tank system, Nipple 1, T 30 min): −5%
- Deviation of fluralaner concentration at the drinking nipple from nominal concentration (percent) ([2]; Medication tank system, Nipple 1, T 60 min): −4%
- Deviation of fluralaner concentration at the drinking nipple from nominal concentration (percent) ([2]; Medication tank system, Nipple 1, T 120 min): −4%
- Deviation of fluralaner concentration at the drinking nipple from nominal concentration (percent) ([2]; Medication tank system, Nipple 1, T 180 min): −5%
- Deviation of fluralaner concentration at the drinking nipple from nominal concentration (percent) ([2]; Medication tank system, Nipple 1, T 240 min): −10%
- Deviation of fluralaner concentration at the drinking nipple from nominal concentration (percent) ([2]; Medication tank system, Nipple 2, T 30 min): −7%
- Deviation of fluralaner concentration at the drinking nipple from nominal concentration (percent) ([2]; Medication tank system, Nipple 2, T 60 min): −5%
- Deviation of fluralaner concentration at the drinking nipple from nominal concentration (percent) ([2]; Medication tank system, Nipple 2, T 120 min): −4%
- Deviation of fluralaner concentration at the drinking nipple from nominal concentration (percent) ([2]; Medication tank system, Nipple 2, T 180 min): −5%
- Deviation of fluralaner concentration at the drinking nipple from nominal concentration (percent) ([2]; Medication tank system, Nipple 2, T 240 min): −4%
- Deviation of fluralaner concentration at the drinking nipple from nominal concentration (percent) ([2]; Medication tank system, Nipple 3, T 30 min): −5%
- Deviation of fluralaner concentration at the drinking nipple from nominal concentration (percent) ([2]; Medication tank system, Nipple 3, T 60 min): −4%
- Deviation of fluralaner concentration at the drinking nipple from nominal concentration (percent) ([2]; Medication tank system, Nipple 3, T 120 min): −4%
- Deviation of fluralaner concentration at the drinking nipple from nominal concentration (percent) ([2]; Medication tank system, Nipple 3, T 180 min): −4%
- Deviation of fluralaner concentration at the drinking nipple from nominal concentration (percent) ([2]; Medication tank system, Nipple 3, T 240 min): −4%
- Deviation of fluralaner concentration at the drinking nipple from nominal concentration (percent) ([2]; Medication tank system, Nipple 4, T 30 min): −6%
- Deviation of fluralaner concentration at the drinking nipple from nominal concentration (percent) ([2]; Medication tank system, Nipple 4, T 60 min): −5%
- Deviation of fluralaner concentration at the drinking nipple from nominal concentration (percent) ([2]; Medication tank system, Nipple 4, T 120 min): −4%
- Deviation of fluralaner concentration at the drinking nipple from nominal concentration (percent) ([2]; Medication tank system, Nipple 4, T 180 min): −4%
- Deviation of fluralaner concentration at the drinking nipple from nominal concentration (percent) ([2]; Medication tank system, Nipple 4, T 240 min): −3%
- Deviation of fluralaner concentration at the drinking nipple from nominal concentration (percent) ([2]; Medication tank system, Nipple 5, T 30 min): −8%
- Deviation of fluralaner concentration at the drinking nipple from nominal concentration (percent) ([2]; Medication tank system, Nipple 5, T 60 min): −4%
- Deviation of fluralaner concentration at the drinking nipple from nominal concentration (percent) ([2]; Medication tank system, Nipple 5, T 120 min): −4%
- Deviation of fluralaner concentration at the drinking nipple from nominal concentration (percent) ([2]; Medication tank system, Nipple 5, T 180 min): −4%
- Deviation of fluralaner concentration at the drinking nipple from nominal concentration (percent) ([2]; Medication tank system, Nipple 5, T 240 min): −6%
- Deviation of fluralaner concentration at the drinking nipple from nominal concentration (percent) ([2]; Medication tank system, Nipple 6, T 30 min): −6%
- Deviation of fluralaner concentration at the drinking nipple from nominal concentration (percent) ([2]; Medication tank system, Nipple 6, T 60 min): −6%
- Deviation of fluralaner concentration at the drinking nipple from nominal concentration (percent) ([2]; Medication tank system, Nipple 6, T 120 min): −4%
- Deviation of fluralaner concentration at the drinking nipple from nominal concentration (percent) ([2]; Medication tank system, Nipple 6, T 180 min): −5%
- Deviation of fluralaner concentration at the drinking nipple from nominal concentration (percent) ([2]; Medication tank system, Nipple 6, T 240 min): −4%
- fluralaner concentration in the drinking water over time and along the drinking water line ([2]; up to 4 hours, medication tank and dosing pump): remains constant over time and along the drinking water line
